Laboratory results: PubChem BioAssay AID298 (DTP/NCI, 2004)
Values joined by “and” are separate entries in the source; they are usually repeats but may differ in a detail not shown here. Identical values can stand only once. Records with an inconclusive call do not appear.

Tested on: MX-1 breast xenograft, intrarenal, nude mice, tumor weight
Assay: NCI In Vivo Anticancer Drug Screen. Data for tumor model Human Mammary Carcinoma MX-1 Xenograft (intrarenal inoculation) in NU/NU BALB/C (nude) mice
Settings: endpoint: mean tumor weight change, higher = larger tumour
Procedure, shortened: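 Mice w/ transplanted tumors, drug vs vehicle; endpoint survival or tumor size; value = T/C.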

[1] = dose: 100.0 mg/kg/injection, schedule: Q01DX010 (sc), vehicle: saline
[2] = dose: 200.0 mg/kg/injection, schedule: Q01DX010 (sc), vehicle: saline
[3] = dose: 50.0 mg/kg/injection, schedule: Q04DX003 (ip), vehicle: saline with Tween-80
[4] = dose: 100.0 mg/kg/injection, schedule: Q04DX003 (ip), vehicle: saline with Tween-80
[5] = dose: 25.0 mg/kg/injection, schedule: Q04DX003 (ip), vehicle: saline with Tween-80

SMILES: N=C(N)c1nn(C2OC(CO)C(O)C2O)c2nc[nH]c(=O)c12 (stereo not drawn)
- T/C (dose: 12.5 mg/kg/injection, schedule: Q04DX003 (ip), vehicle: Klucel + Tween-80): 92 % of control
- T/C (dose: 25.0 mg/kg/injection, schedule: Q04DX003 (ip), vehicle: Klucel + Tween-80): 42 % of control
- T/C (dose: 25.0 mg/kg/injection, schedule: Q04DX003 (ip), vehicle: distilled water + Tween-80 + alcohol): 95 % of control
- T/C (dose: 50.0 mg/kg/injection, schedule: Q04DX003 (ip), vehicle: distilled water + Tween-80 + alcohol): 83 % of control
- T/C (dose: 75.0 mg/kg/injection, schedule: Q04DX003 (ip), vehicle: Klucel + Tween-80): 36 % of control
- T/C (dose: 100.0 mg/kg/injection, schedule: Q04DX003 (ip), vehicle: distilled water + Tween-80 + alcohol): 4 % of control
- T/C (dose: 125.0 mg/kg/injection, schedule: Q04DX003 (ip), vehicle: Klucel + Tween-80): 9 % of control

SMILES: N#Cc1c(N)[nH]c2ccc(Sc3ccccc3)cc12
- T/C (dose: 30.0 mg/kg/injection, schedule: Q04DX003 (ip), vehicle: saline with Tween-80): 92 % of control
- T/C (dose: 60.0 mg/kg/injection, schedule: Q04DX003 (ip), vehicle: saline with Tween-80): 88 % of control
- T/C (dose: 120.0 mg/kg/injection, schedule: Q04DX003 (ip), vehicle: saline with Tween-80): 75 % of control

SMILES: O=C1CC2(C(=O)N1CN1CCOCC1)c1ccccc1-c1ccccc12
- T/C (dose: 300.0 mg/kg/injection, schedule: Q04DX003 (ip), vehicle: Klucel (hydroxypropylcellulose) (HPC)): 97 % of control
- T/C (dose: 600.0 mg/kg/injection, schedule: Q04DX003 (ip), vehicle: Klucel (hydroxypropylcellulose) (HPC)): 72 % of control

SMILES: CNC(=O)ON(C(C)=O)C(=O)NC
- T/C (dose: 12.5 mg/kg/injection, schedule: Q01DX010 (ip), vehicle: saline): 218 % of control
- T/C (dose: 25.0 mg/kg/injection, schedule: Q01DX010 (ip), vehicle: saline): 106 % of control
- T/C (dose: 25.0 mg/kg/injection, schedule: Q01DX010 (sc), vehicle: saline): 104 % of control
- T/C (dose: 50.0 mg/kg/injection, schedule: Q01DX010 (ip), vehicle: saline): 72 % of control
- T/C (dose: 50.0 mg/kg/injection, schedule: Q01DX010 (sc), vehicle: saline): 26 % of control
- T/C (dose: 100.0 mg/kg/injection, schedule: Q01DX010 (ip), vehicle: saline): 5 % of control
- T/C [1]: -42 % of control
- T/C [2]: -89 % of control

SMILES: NC(=O)c1[nH]cnc1O
- T/C [3]: 96 % of control
- T/C [4]: 112 % of control and 119 % of control
- T/C (dose: 400.0 mg/kg/injection, schedule: Q04DX003 (ip), vehicle: saline with Tween-80): 81 % of control
- T/C (dose: 800.0 mg/kg/injection, schedule: Q04DX003 (ip), vehicle: saline with Tween-80): 69 % of control

SMILES: O=C(Nc1cc(Cl)ccc1C(=O)O)c1cccc(C[n+]2ccccc2)c1
- T/C (dose: 150.0 mg/kg/injection, schedule: Q04DX003 (ip), vehicle: saline with Tween-80): 109 % of control
- T/C (dose: 300.0 mg/kg/injection, schedule: Q04DX003 (ip), vehicle: saline with Tween-80): 109 % of control
- T/C (dose: 600.0 mg/kg/injection, schedule: Q04DX003 (ip), vehicle: saline with Tween-80): 82 % of control

SMILES: O=C1CN(CCN2CC(=O)N(CN3CCOCC3)C(=O)C2)CC(=O)N1CN1CCOCC1
- T/C (dose: 150.0 mg/kg/injection, schedule: Q04DX003 (ip), vehicle: water): 56 % of control
- T/C (dose: 300.0 mg/kg/injection, schedule: Q04DX003 (ip), vehicle: water): 58 % of control

SMILES: CC[C@@]1(O)C(=O)OCc2c1cc1n(c2=O)Cc2cc3c(N)cccc3nc2-1
- T/C (dose: 0.72 mg/kg/injection, schedule: Q04DX003 (ip), vehicle: saline with Tween-80): 6 % of control
- T/C (dose: 1.0 mg/kg/injection, schedule: Q04DX003 (ip), vehicle: saline with Tween-80): -97 % of control
- T/C (dose: 1.2 mg/kg/injection, schedule: Q04DX003 (ip), vehicle: saline with Tween-80): -30 % of control
- T/C (dose: 2.0 mg/kg/injection, schedule: Q04DX003 (ip), vehicle: saline with Tween-80): -92 % of control and -100 % of control
- T/C (dose: 3.33 mg/kg/injection, schedule: Q04DX003 (ip), vehicle: saline with Tween-80): -100 % of control

SMILES: Brc1c(NC2=NCCN2)ccc2nccnc12
- T/C (dose: 50.0 mg/kg/injection, schedule: Q04DX003 (sc), vehicle: saline): 69 % of control
- T/C (dose: 100.0 mg/kg/injection, schedule: Q04DX003 (sc), vehicle: saline): 57 % of control
- T/C (dose: 200.0 mg/kg/injection, schedule: Q04DX003 (sc), vehicle: saline): 41 % of control
- T/C (dose: 400.0 mg/kg/injection, schedule: Q04DX003 (sc), vehicle: saline): 23 % of control

SMILES: O=C(CCCN1CCC(O)(c2cccc(C(F)(F)F)c2)CC1)c1ccc(F)cc1
- T/C (dose: 25.0 mg/kg/injection, schedule: Q01DX010 (sc), vehicle: Klucel (hydroxypropylcellulose) (HPC)): 33 % of control

SMILES: CCC(NC(N)=O)C(CC)NC(N)=O (stereo not drawn)
- T/C (dose: 6.25 mg/kg/injection, schedule: Q04DX003 (ip), vehicle: saline with Tween-80): 89 % of control
- T/C (dose: 12.5 mg/kg/injection, schedule: Q04DX003 (ip), vehicle: saline with Tween-80): 78 % of control
- T/C [5]: 74 % of control

SMILES: CC(O)CCC(=O)c1ccoc1 (stereo not drawn)
- T/C (dose: 3.75 mg/kg/injection, schedule: Q01DX010 (ip), vehicle: saline): 191 % of control
- T/C (dose: 7.5 mg/kg/injection, schedule: Q01DX010 (ip), vehicle: saline): 95 % of control and 120 % of control
- T/C (dose: 60.0 mg/kg/injection, schedule: Q01DX010 (ip), vehicle: saline): 49 % of control

SMILES: COc1cc(C2CC(C)(O)Oc3cc4c(cc32)OCO4)cc(OC)c1OC (stereo not drawn)
- T/C [5]: 86 % of control
- T/C [3]: 75 % of control
- T/C [4]: 73 % of control and 74 % of control
- T/C (dose: 200.0 mg/kg/injection, schedule: Q04DX003 (ip), vehicle: saline with Tween-80): 46 % of control

SMILES: c1ccc2c(c1)-c1ccccc1C1NC21 (stereo not drawn)
- T/C (dose: 37.5 mg/kg/injection, schedule: Q04DX003 (sc), vehicle: saline with Tween-80): 60 % of control
- T/C (dose: 75.0 mg/kg/injection, schedule: Q04DX003 (sc), vehicle: saline with Tween-80): 30 % of control

SMILES: CCC(=O)[O][Bi]([c]1ccccc1)[c]1ccccc1
- T/C (dose: 12.5 mg/kg/injection, schedule: Q04DX003 (ip), vehicle: Klucel (hydroxypropylcellulose) (HPC)): 100 % of control
- T/C (dose: 25.0 mg/kg/injection, schedule: Q04DX003 (ip), vehicle: Klucel (hydroxypropylcellulose) (HPC)): 77 % of control

SMILES: CC(=O)O[C@H]1C(=O)[C@@]2(C)C(C(OC(=O)c3ccccc3)[C@]3(O)C[C@H](OC(=O)C(O)C(NC(=O)c4ccccc4)c4ccccc4)C(C)=C1C3(C)C)C1(OC(C)=O)COC1C[C@@H]2OC(=O)CN(C)C (stereo partly drawn) (tested in a mixture with another compound)
- T/C (dose: 4.13 mg/kg/injection, schedule: Q01DX009 (ip), vehicle: water): 34 % of control
- T/C (dose: 8.25 mg/kg/injection, schedule: Q01DX009 (ip), vehicle: water): 23 % of control
- T/C (dose: 16.5 mg/kg/injection, schedule: Q01DX009 (ip), vehicle: water): -93 % of control
- T/C (dose: 33.0 mg/kg/injection, schedule: Q01DX009 (ip), vehicle: water): -100 % of control

SMILES: COc1cccc2c1[C@H]1CO[C@H]3C4C[C@H](C(=O)O)C([C@@H](C2)N13)N4C (stereo partly drawn)
- T/C (dose: 1.25 mg/kg/injection, schedule: Q04DX003 (ip), vehicle: other): 50 % of control
- T/C (dose: 2.5 mg/kg/injection, schedule: Q04DX003 (ip), vehicle: other): 32 % of control and 33 % of control
- T/C (dose: 5.0 mg/kg/injection, schedule: Q04DX003 (ip), vehicle: other): 16 % of control and 19 % of control
- T/C (dose: 7.5 mg/kg/injection, schedule: Q04DX003 (ip), vehicle: water): 9 % of control
- T/C (dose: 10.0 mg/kg/injection, schedule: Q04DX003 (ip), vehicle: other): 8 % of control and 9 % of control
- T/C (dose: 15.0 mg/kg/injection, schedule: Q04DX003 (ip), vehicle: water): 2 % of control
- T/C (dose: 20.0 mg/kg/injection, schedule: Q04DX003 (ip), vehicle: other): 2 % of control
- T/C (dose: 30.0 mg/kg/injection, schedule: Q04DX003 (ip), vehicle: water): 2 % of control

SMILES: CSc1cc(=O)n2c3ccccc3c3ccnc1c32
- T/C (dose: 80.0 mg/kg/injection, schedule: Q04DX003 (sc), vehicle: saline with Tween-80): 89 % of control
- T/C (dose: 160.0 mg/kg/injection, schedule: Q04DX003 (sc), vehicle: saline with Tween-80): 26 % of control
- T/C (dose: 320.0 mg/kg/injection, schedule: Q04DX003 (sc), vehicle: saline with Tween-80): 40 % of control

SMILES: CNC=O
- T/C [1]: 47 % of control
- T/C [2]: 10 % of control

SMILES: C1CC[N-]CC1.C1CC[N-]CC1.C1CC[N-]CC1.[Cl][Rh]([Cl])[Cl]
- T/C (dose: 75.0 mg/kg/injection, schedule: Q04DX003 (sc), vehicle: saline): 90 % of control
- T/C (dose: 150.0 mg/kg/injection, schedule: Q04DX003 (sc), vehicle: saline): 90 % of control
- T/C (dose: 300.0 mg/kg/injection, schedule: Q04DX003 (sc), vehicle: saline): 75 % of control
